The values below come from a melting point compilation (Tetko et al.; mined from patent text by program, amines drawn as free bases though some values may be those of a salt).

A value given as a limit tells only on which side of the number the result lay.

In the case of `CCCCCS(=O)(=O)NC(=O)CCc1cc(OCc2ccccc2)nn1Cc1ccc(Cl)cc1Cl`, the melting point was 139 to 141 °C.
Next, `O=CNc1[nH]c(-c2ccc(F)cc2)nc1-c1ccccc1`: 245 to 247 °C.
Regarding `COc1ccc(C(Cc2ccncc2)c2ccc(C(N)=O)cc2)cc1OC1CCCC1` (stereo not drawn), the melting point is 180 to 182 °C.
Next, `Cc1ccc(C(=O)NC(Cc2cccc(Br)c2)C(=O)O)cc1` (stereo not drawn): 196 to 197 °C; `CNC(=O)N1CCC(c2nn(-c3ccc(C(F)(F)F)cc3)c3ccccc23)CC1`: 150 to 152 °C; `CC(C)(C)NC(=O)Nc1nc2nc(N)ncc2cc1-c1ccncc1`: above 350 °C.
On to `O[C@@H]1c2ccccc2CC[C@H]1NCc1ccccc1` (relative stereo), for which the melting point fell in the range of 110 to 114 °C.
In turn, `CC(=O)C(Cl)=NNc1cccc(C)c1` showed a melting point of 144 to 146 °C.
Next, `NS(=O)(=O)c1ccccc1C1CO1` (stereo not drawn): 136 to 139 °C; `CCOC(=O)C(=O)Nc1nc(C)cs1`: 171 to 173 °C; `COc1cc(O)c(C(=O)C=Cc2sccc2C)c(OC)c1`: 124 °C.
The result for `CC(C)NCC(O)COc1ccc2c(c1)C1CCC2c2ccccc21` (stereo not drawn) reads 126 to 127 °C.
The result for `Cc1nc2c3c(ccn2c1C)C(O)CC(c1ccsc1)N3` (stereo not drawn) reads 192 to 194 °C; that for `OC(c1ccc(Cl)cc1Cl)C(Oc1ccc(Cl)cc1)n1ccnc1` (stereo not drawn), 108 to 110 °C; that for `O=C(c1ccc(Cl)cc1)C1(n2cnc(Cl)n2)CC1`, 85 °C.
For the compound `CCOc1cc2c(Nc3cc(OC)c(Cl)cc3Cl)c(C#N)cnc2cc1OCCOC`, the melting point fell in the range of 215 to 217 °C.
For the compound `N#Cc1ccc(N(Cc2ccc(OS(N)(=O)=O)c(Cl)c2)n2cnnc2)cc1-c1cc2ccccc2o1`, the melting point was in the range of 214 to 215 °C.
The result for `O=C(Nc1cccnc1)N1CCc2c1ccc(Cl)c2Cl` reads above 240 °C; that for `Brc1cncc2ncc(Br)n12`, 150 °C.
Next, `CC(CO)Nc1c([N+](=O)[O-])cnc2ccccc12` (stereo not drawn): 207 to 211 °C.
Next, `CC(C)(C)OC(=O)n1cc(I)c2ccncc21`: 68 to 72 °C; `COC(=O)c1ccc2c(c1)S(=O)(=O)c1ccccc1NC2=O`: 300 to 302 °C; `CC1(C)CCC(C)(C)c2cc(-c3cc(-c4ccc(C(=O)O)cc4)ccc3OCc3ccccc3)ccc21`: 241 to 244 °C.
In turn, `CC(=O)c1c(C)[nH]c(-c2cccc(C)c2)c1N` gave a melting point of 195 to 197 °C.
The result for `Cc1ccc(Cl)c(Nc2ccccc2-c2nnc(N)s2)c1Cl` reads 219 to 226 °C.
Next, `COc1cc(C2CCN(C[C@H](Oc3ncc4ccc(-c5ccccc5OC)n4n3)C(F)(F)F)CC2)ccc1N`: 73 to 82 °C; `N#Cc1cn(C2OC(CO)C(O)C2O)c2ncn(O)c(=O)c12` (stereo not drawn): 229 to 231 °C.
The result for `CS(=O)(=O)c1ccc(-c2nn3c(c2-c2ccc(F)cc2)OCCC3)cc1` reads 198 to 200 °C; that for `Cc1[nH]c(S(C)(=O)=O)nc1-c1cc(C(C)(C)C)c(O)c(C(C)(C)C)c1`, 235 to 237 °C.
In the case of `CCN1C(=O)C(=S2CN(CC)c3ccccc32)SC1=S` (stereo not drawn), the melting point lay within 246 to 248 °C.
For the compound `C=CCn1c(=Nc2ccccc2)sc2ncccc2c1=O`, the melting point lay within 94 to 95 °C.
Next, `COCOc1cc(F)ccc1-c1cc(-c2cccc(C(=O)O)c2)c(C#N)c(NC(=O)c2ccco2)n1`: 254 °C; `CCc1nc(/C=C/c2cn(-c3ccccc3)nc2O)co1`: 157 to 159 °C.
`CN1CCC(c2c[nH]c3ccc(C(=O)c4ccc(OC(F)(F)F)cc4)cc23)CC1` showed a melting point of 172 to 175 °C.
`CC(=O)Nc1c(-c2cc(Cl)ccc2O)c2cc(C(F)(F)F)ccc2[nH]c1=O` gave a melting point of 222 to 224 °C.
The result for `Cc1cncn1-c1ccc(O)cc1` reads 256 °C; that for `C1=C(c2ccccc2)CCN(CCCCc2cnc3ccccc3c2)C1`, 92.8 to 93.9 °C; that for `COc1cccc(CN(C)CC(CCN2CCC(NC(C)=O)(c3ccccc3)CC2)c2ccc(Cl)c(Cl)c2)c1` (stereo not drawn), 59 to 61 °C.
The result for `CCCNC(=O)C(C)=Cc1ccc2[nH]ccc2c1` reads 92 to 94 °C; that for `O=Cc1ccc(C(F)(F)F)cc1[N+](=O)[O-]`, 63 °C.
In the case of `CN1Cc2cc(Br)cnc2N(C)C1=O`, the melting point lay within 119 to 120 °C.
The result for `COc1ccccc1C=CC=CC(=O)c1cc(OC)c(OC)c(OC)c1` reads 111 °C; that for `OCCc1ccc(OCCN2CCCCC2)cc1`, 68 °C.
Next, `Cc1cc(-c2ccc(C(F)(F)F)cc2)cc(-c2cccc(-c3cccc(N)c3)n2)n1`: 167 °C; `O=c1c2cc(Br)ccc2nc(C(S)c2ncnc3[nH]cnc23)n1-c1ccccc1Cl` (stereo not drawn): 212 to 242 °C.
As for `O=C1CCC(N2C(=O)c3cccc(CNC(=O)c4ccc(Cl)c(Cl)c4)c3C2=O)C(=O)N1` (stereo not drawn), the melting point was in the range of 161 to 163 °C.
Next, `COc1ccc2cc(C(=O)[C@H](C)Br)ccc2c1`: 90 to 91 °C; `CCCCCCCCOC(=O)COc1cc(F)ccc1C(=O)NCc1cccc([N+](=O)[O-])c1`: 72 to 74 °C.
With `N#CCCNC(=O)c1cccc(-c2cccc(Oc3ccccc3Cl)n2)c1`, the melting point is 82 to 83 °C.
`COc1cccc(OC)c1-c1ccc(C[C@H](NC(=S)c2c(Cl)cccc2Cl)C(=O)O)cc1` registered a melting point of 180 °C.
Compound `Cc1c(C(=O)O)cccc1C(=O)c1ccc(Cl)cc1` yielded a melting point of 205 °C.
Next, `ClCCCOc1ccc(-c2ccccc2)cc1`: 65 to 66 °C; `COc1ccc(COc2cc3c(cc2-c2cc(C=CC(=O)O)ccc2OC)C(C)(C)CCC3(C)C)cc1`: 201 to 203 °C.
Next, `NC(=O)c1cccc(-c2ccc(Cl)c3cc(Cc4ccc(F)c(F)c4)sc23)c1`: 185 to 186 °C; `CSc1ccc(-c2nc(SC)c(C#N)c(=O)n2-c2ccc(F)cc2)cc1`: 219 to 221 °C.
`Nc1cccc(S(=O)(=O)N2CC=CC2)c1` showed a melting point of 187 to 188 °C.
The result for `CC(Sc1nc(N)cc(C(F)(F)F)n1)c1cc2ccoc2cn1` (stereo not drawn) reads 180 to 182 °C.
The result for `C(=C\c1nc2ccccc2s1)/c1cccc(NCCCc2nnn[nH]2)c1` reads 168 to 169 °C.
The result for `Cc1c(F)c(F)c(COC(=O)[C@@H]2[C@@H](C=O)C2(C)C)c(F)c1F` reads 43.2 °C; that for `NS(=O)(=O)OCCCOc1ccc(-n2ccnc2)cc1`, 105 to 106 °C.
Compound `CC(C)NC(=O)CCCCCCI` returned a melting point of 46 to 51 °C.
Compound `COc1cccc(Nc2n[nH]c(N=CN(C)C)c2C#N)c1` showed a melting point of 227 to 231 °C.
`COc1cc(C2C3=C(COC3=S)N(Cc3ccccc3)c3cc4c(cc32)OCO4)cc(OC)c1OC` (stereo not drawn) gave a melting point of 130 °C.
The result for `O=[N+]([O-])c1ccc(Nc2cccc(O)c2)cc1` reads 158 to 160 °C; that for `O=C1c2ccccc2C(=O)C2(CC3CCCC(C(F)(F)F)C3)OC12` (stereo not drawn), 85 °C; that for `Cc1ccc(CCCO)c(NCc2ccc3nc(NCCCN4CCOCC4)n(Cc4cccc5c4ncn5C)c3c2)c1`, 198 °C.
Next, `CN(C)C(C)(C)C(N)=O`: 109 to 111 °C; `CC(C)(C)[Si](C)(C)OC1CN(S(C)(=O)=O)Cc2nc3c(N)nc4ccccc4c3n2C1` (stereo not drawn): 256 to 258 °C.
Next, `COCCOc1cc(NC(=O)OC(C)(C)C)c(NC(=O)CC(=O)c2cccc(-n3ccnc3)c2)cc1-c1ccc(F)cc1`: 61 to 63 °C.
Regarding `CC(C)c1cn2ccccc2c1Sc1ccc(O)cc1`, the melting point was 100 °C.
With `Cc1c(S(C)(=O)=O)cc(C(C)(C)C)c(O)c1C(=O)Nc1ccc(S(=O)(=O)C(F)(F)F)cc1Cl`, the melting point was in the range of 220 to 221 °C.
The result for `Cc1cc(-c2csc(N)n2)on1` reads 208 to 210 °C.
The result for `O=C(NCc1ccccn1)Nc1cc(N2C(=O)CCc3ccccc32)ccn1` reads 194 to 195 °C; that for `Cc1c(-n2c(C)ccc2C)cc(CC(C#N)=CNc2ccccc2)cc1-n1c(C)ccc1C`, 252 °C.
The result for `Nc1cccc(CC2COc3ccc(OCc4ccc5ccc(Cl)cc5n4)cc3C2)c1` (single isomer, unassigned; (+)) reads 128 to 130 °C; that for `CC1(C)CCC(S)(CCOC(=O)CCC(=O)O)CC1`, 55 to 60 °C; that for `CNc1nc(-c2cccc(-n3cccc3)c2)c2cc(OC)c(OC)cc2n1`, 199 to 201 °C.
`O=C(Nc1ccc(C(=O)N2Cc3ccccc3Cc3ccccc32)cc1)c1ccc(C(F)(F)F)cc1` yielded a melting point of 205 to 207 °C.
Next, `Cc1cc(C)cc(Sc2c(CN3CCOCC3)c(C)[nH]c(=O)c2I)c1`: 230 °C; `C=CCNC(=O)C(C)=Cc1cc([N+](=O)[O-])ccc1Cl`: 111 to 112 °C.
Next, `CCCC[C@]1(CC)CSc2cc(OC)c(OC)cc2[C@@H](c2ccccc2)N1`: 64 to 66 °C; `COc1ccc(C(=O)Nc2cc(NC(=O)c3ccc(OCCCCl)cc3)ccc2C)cc1OC`: 186 to 187 °C; `COc1ccc(C#N)cc1/C=C/C(=O)Sc1nc2ccccc2s1`: 183 to 185 °C.
The result for `Cc1c(-c2ccccc2)oc2c(C(=O)NCCCN3CCC(C(=O)c4ccc(F)cc4)CC3)cccc2c1=O` reads 181 to 183 °C; that for `CCCc1nn(C)c2c(=O)n(CCCOc3ccc(SC(C)(C)C(=O)OCC)cc3)c(CC)nc12`, 52 to 54 °C.
`CCCCOc1n[nH]c(=O)n1C` had a melting point of 77 °C.
Next, `Oc1cc(O)c(C23CC4CC(CC(C4)C2)C3)cc1C12CC3CC(CC(C3)C1)C2`: 146 °C; `C=CCCNS(=O)(=O)CC(=O)C1=C(C)NC(C)=C(C(=O)OC(C)C)C1c1cccc([N+](=O)[O-])c1` (stereo not drawn): 137 to 140 °C.
